Results from article PMC5502478 (ACS chemical biology, 2016).

Key:
Assay type in all cases: cell-based
[1] = tested on: Candida albicans ATCC 10231; settings: compared to 1 and 2
[2] = tested on: Candida glabrata ATCC 2001; assay: MIC, serial dilution antifungal assay
[3] = tested on: Human erythrocytes; assay: Hemolytic assay; settings: tested concentrations

## pneumocandin K [Compound 7]
[1]
  fold more potent (MIC) than wild-type fermentation products 1 and 2 against C. albicans: 4 fold
[2]
  fold improvement of MIC against C. glabrata compared to 1: 32 fold
[3]
  hemolytic activity relative to pneumocandin B0 (overall): higher hemolytic activity than pneumocandin B0

## pneumocandin I [Compound 5]
[1]
  fold more potent (MIC) than wild-type fermentation products 1 and 2 against C. albicans: 8 fold
[2]
  fold improvement of MIC against C. glabrata compared to 1: 32 fold
[3]
  hemolytic activity relative to pneumocandin B0 (overall): comparable to pneumocandin B0
